In PMC11725581, “Developing novel Lin28 inhibitors by computer aided drug design” (Cell Death Discovery, 2025):

Columns and labels:
[1] = system: Lin28b, let-7 target, CSC and NE biomarker genes in DuNE cells; test: Gene expression (real-time qPCR, immunoblotting) in DuNE cells; assay type: cell-based; settings: 72 h
Protocol: Fig. 4 Ln268 strongly blocks cancer cell stemness of t-NEPC cells. A, B DuNE cells were treated with C1632, Ln15, and Ln268 for 72 h. Selected Let-7 targeted genes, stem cell biomarkers and NE biomarkers were measured by real-time qPCR (A). Lin28b and its downstream HMGA2 protein levels were measured by immunoblotting (B). C DuNE spheroids were treated with 0–100 μM of C1632, Ln15, and Ln268 for 0–6 days. Spheroid sizes were measured and plotted. D DuNE cells were used to perform colony formation assays in the presence of C1632, Ln15 and Ln268 for 14 days. The number of colonies formed in each treatment counted and plotted. E DuNE cells under 3D culture conditions were treated with C1632, Ln15, and Ln268 at the indicated concentrations. Cell growth rates were measured by Incucyte. F DuNE cells were treated with 0–20 μM Ln268 for 144 h. FACS measured cell populations at each stage of cell cycling. Three independent biological replicates were performed for all the assays. All results are presented as the mean ± SD.
Total RNA was extracted by TRIZOL reagent (Invitrogen), treated with deoxyribonuclease and reversely transcribed by random hexamers and superscript II (Invitrogen). Real-time qPCR was performed on the ABI PRISM 7900 HT system (Applied Biosystems) using the FastStart Universal SYBR Green Master mix (Roche) following standard protocol as we reported. […]

Kuramochi cells = test: Cell proliferation (Incucyte), Kuramochi; assay type: cell-based; settings: Lin28a/Lin28b-positive
Text: (§1) To further evaluate whether the suppressive effects of Ln268 are specific to Lin28-positive cancer cells, we compared cell growth rates of DuNE (Lin28b-positive line) and Du145 (Lin28b-negative line), both of which are Lin28a-negative. DuNE has the same genomic background with Du145 except for the transduction of the SRRM4 gene. […] Furthermore, Ln268 had no impact on the cell growth of DuNE(KO) cells, in which the Lin28b gene was knocked out by CRISPR (Fig. 5C). […] We also tested several ovarian and endometrial cancer cell lines with different Lin28a and Lin28b expression profiles (Fig. 5E).

Lin28b ZKD = biological target: T1, Lin28b ZKD (Homo sapiens, UniProt Q6ZN17); test: Fluorescence polarization (FP) assay, Lin28b ZKD:pre-let-7d interaction; assay type: binding; settings: FP / EMSA
T1 sequence (Q6ZN17 127-166 limits assumed): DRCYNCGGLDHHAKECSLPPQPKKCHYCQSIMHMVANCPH
Protocol: We conducted two biochemical assays, FP and EMSA, to validate the predicted compounds. To optimize the FP assays, we performed a series of titrations using: (1) FAM-labeled pre-let-7d RNA probe, (2) Lin28b ZKD protein, and (3) non-labeled pre-let-7 probe as a competitor (Fig. 2A). These assays yielded the optimal concentrations required for the subsequent FP validation assays, namely 10 nM for the pre-let-7d probe and 1 μM for Lin28b ZKD protein. The FP signal from the free probe was set as 0%, while the signal from the probe-ZKD complex in the absence of compounds was set as 100%. C1632 was used as a control Lin28 inhibitor (Fig. 2B). […] Since the docking pocket is almost identical between Lin28a and Lin28b homologs, we repeated the FP assays using Lin28a ZKD (Figure S2).
The fluorescein amidites (FAM)-tagged pre-Let-7d probe with the sequence of […] was purchased from Integrated DNA Technologies (IDT). The probe at the concentrations ranging from 1 nM to 50 uM was incubated with Lin28B (ZKD) or Lin28 (CSD+ZKD) to a final volume of 30 uL at room temperature for 20 min. To read the fluorescence, a TECAN 500 machine was used. Fluorescence polarization was calculated using the following equation:
P=(Fparrallel−Fperpendicular)/(Fparrallel+FperpendicularP)
where P is the fluorescence polarization reading, F parallel is the fluorescence intensity acquired from the parallel excitation plane, and F perpendicular is the fluorescence intensity acquired from the perpendicular direction of the excitation plane. The total fluorescence intensity is estimated using the following equation:
F=Fparallel+2FperpendicularF.
All the raw FP signal data from the TECAN 500 FP results were analyzed using Prism 8.0 (GraphPad, San Diego, CA, USA); normalized curves were plotted and IC50 values were estimated. All FP data were repeated three to five times.
Figure S1. Lin28b ZKD protein was incubated with the indicated compounds at the concentration of 0, 0.1, 0.2, 0.5, 1, 2, 5, 10, 20, 50, 100, and 200uM. FP signals were measured and plotted relative to that from vehicle.

[2] = system: Lin28b-mediated SG formation in DuNE cells; test: Stress granule (SG) formation induced by ARS, confocal microscopy; assay type: cell-based
Text: To assess whether Lin28 inhibitors can inhibit SG formation in cancer cells, we induced SGs in DuNE cells using ARS. These cells were co-treated with either vehicle, C1632, Ln15, or Ln268 (Fig. 6F). As a positive control, RNase was also included since it is known to prevent Lin28-mediated SG formation. Under vehicle treatment condition, Lin28b was primarily localized within SGs; however, in the presence of Lin28 inhibitors, its subcellular distribution became more diffuse, extending beyond SGs. SG formation involves a dynamic process in which initial smaller granules coalesce to form larger, mature SGs through phase separation (Fig. 6F).
Cells were fixed with 4% paraformaldehyde, treated in 0.25% Triton X-100 for 15 mins, and mounted with DAPI staining mount (Vector Labs; Burlingame, USA). Cell images were captured by confocal microscopy at 63X magnification (Zeiss; Germany).

[3] = system: DuNE(KO) cells (Lin28b gene knocked out by CRISPR); test: Cell proliferation, DuNE(KO) cells; assay type: cell-based; settings: Lin28b knockout, 72 h
Text: as §1

Structure (SMILES): O=c1[nH]c(Nc2ccc(F)cc2O)cs1 [Ln268]
- effect on Lin28b mRNA and protein levels [1]: potently inhibited Lin28b at both mRNA and protein levels
- inhibition of Oct4, Nanog and ID4 expression relative to C1632 ([1]; qPCR): stronger inhibitory effects than C1632
- effect on growth of Kuramochi cells (Kuramochi cells): suppressed the growth
- activity in protein-based assays (Lin28b ZKD): performed less effectively than Ln15
- effect on aggregation of smaller granules (<20 pixels) into larger SGs (>50 pixels) [2]: the most suppressive effect
- effect on cell growth of DuNE(KO) cells [3]: no impact
